Source: patent US20020062088A1, “System and method for statistical analysis of QT interval as a function of changes in RR interval” (priority 2000, published 2002)
Read-outs that look alike come from different tables or passages of the source.

Assays:
conscious mongrel dog = conditions: in vivo
Text: A system for recording electrocardiogram data in accordance with the present invention is broadly shown in FIG. 6 as reference numeral 100. […] The vehicle or test compound may be administered in various ways, including but not limited to orally, intravenously, or subcutaneous.
Heart rate (RR interval) and Lead II ECG data are collected continuously on a beat-to-beat basis at a sampling rate of 1000 Hz to allow for millisecond (ms) resolution. Using the sampled data, the QT interval and preceding RR interval are measured on individual cardiac cycles using commercially available data acquisition and analysis software. The software package used in support of the data presented here was from Gould Inc. (Po-Ne-Mah) subsidiary. This software permits visual validation of the determination of end points used in the calculation of the ECG time intervals. The collection of data is not limited to any particular method. For example, ECG time intervals can be measured using a ECG strip chart recorder. Thus, both manual and electrical data collection is possible with the present invention.
The various treatments with vehicle or compounds are studied in a randomized fashion.
Approximately 250 to 300 consecutive cardiac cycles are analyzed for a pre-dose period and during steady-state compound exposure. This encompasses between three to five minutes of continuous data for each data collection period. […] An asymptotic decaying exponential growth curve fit is used to describe the relationship between QT and RR interval:
QT=A−B*exp(−C*RR/1000) (1)
Equation (1) is used to fit the QT measurements to the preceding RR interval for each separate data set of consecutive cardiac cycles. The data from each sample period for each vehicle or compound dose is fit to the equation using a least squares nonlinear regression method such as, but not limited to, Quasi Gauss-Newton.
The upper 95% confidence limit for the difference of the curves is determined for each of the dose-to-pre-dose comparisons. If the dose curve crosses the 95% limit, the QT and RR values and the direction of crossing is noted.
The analysis of the compound versus vehicle effect on QT is also accomplished by comparisons of the number of prolonged points exceeding the 95% confidence interval of their respective pre-dose curves. The pre-dose curve value represents the least squares estimate of QT at that value of RR. The 95% limits are then used to compare the overall effect of the treatment (compound or vehicle) to that of the pre-dose response. The confidence limits of the two curves are combined (pooled) to determine the standard error of the difference between the pre-dose and post-dose curves. […] The extent of the confidence and prediction limits depends on the overall variability of the data and the values of the coefficients.
The number of pre-dose data that exceed the upper 95% prediction limit (referred to herein as “outliers”) is compared to the number of post-dose data that exceed the limit for each of the time periods. A repeated measures test for significant difference between pre-dose and post-dose outliers is conducted to evaluate an effect. In the case of small but consistent effects, the repeated measures test detects significant differences better than individual tests. […] To minimize the chance of false negatives, β, conventionally known as “Type II errors,” no multiple comparison adjustments are made for the individual tests.
Once the outliers are identified, they are compared to the pre-dose curve to estimate the magnitude of prolongation, ΔQT, above the QT-RR curve fit to the pre-dose data. The magnitude of prolongation is referenced to the curve rather than the upper 95% confidence bound because the curve is the best estimate of the QT-RR functional relationship, regardless of the number of data points.

humans = conditions: cited from earlier work

Structure (SMILES) | Treatment crosses pre-dose curve (conscious mongrel dog) | number and magnitude of the outliers compared to the pre-dose and vehicle response (conscious mongrel dog) | post-dose curve versus pre-dose curve (conscious mongrel dog) | #outliers/total (QT exceeding 95% confidence bounds of pre-dose curve) (conscious mongrel dog; mongrel) | RR at crossing point of post-dose and pre-dose curves (conscious mongrel dog; mongrel) | mean ΔQT (of QT exceeding 95% confidence bounds of pre-dose curve) (conscious mongrel dog; mongrel) | ΔQT range (of QT exceeding 95% confidence bounds of pre-dose curve) (conscious mongrel dog; mongrel) | QTRR1000 (least squares estimate of QT at RR 1000 ms, mean ± SEM from curve fit) (conscious mongrel dog; mongrel, iv) | QTc, clinically (humans; clinical) | QT prolongation and sudden death in humans (humans) | QTc, clinically (humans; human, in vivo)
COc1cc(N)c(Cl)cc1C(=O)NC1CCN(CCCOc2ccc(F)cc2)CC1OC (stereo not shown) [cisapride] | Yes:RR = | significant increase | not significantly greater than the pre-dose curve | 130/324 | 1094 ms | 12 | 5 - 47 | 240 ± 18 | clear, dose-dependent increase in QTC | caused QT prolongation and sudden death | 
CC(C)NCC(O)c1ccc(NS(C)(=O)=O)cc1 (stereo not shown) [sotalol] |  |  |  |  |  |  |  |  |  | caused QT prolongation and sudden death | 
CC(C)(C)c1ccc(C(O)CCCN2CCC(C(O)(c3ccccc3)c3ccccc3)CC2)cc1 (stereo not shown) [terfenadine] |  | significant increase |  |  |  |  |  |  |  |  | clear, dose-dependent increase in QTC
